From US20220096468A1 (priority 2018, published 2022) come the findings set out here.

Test [1] addresses RdRp of the influenza virus (replicon activity) (Influenza A virus, UniProt P03431). Briefly: Influenza virus RdRp replicon reporter (Luc) assay in transduced 293T cells. Conditions: for inhibition at 10 µM: read-out: Replicon inhibiting percentage; for IC50: read-out: T-705 50% inhibitory concentration. The format is cell-based, Influenza A/PR/8/34 (H1N1).
Test [2] has as its system influenza virus (PR/8(H1N1)). Briefly: microbe, parasite or virus in culture. It is filed as cell-based. Conditions: for IC50: unidentified influenza virus, MDCK, MDCK cells.
Test [3] has as its system 293T cells. Briefly: Amount of intracellular T-705RTP in 293T cells by LC/MS/MS. It is filed as cell-based, human. The settings on record: 293T cells cultured 24 hours with T-705 and 6-mercaptopurine; FIG. 1. As for the experimental part: As described above, the pyrazine derivative or a salt thereof undergoes ribosyl phosphorylation in a cell. […] In order to examine whether or not the effect of 6-mercaptopurine to reinforce the activity of T-705, which was shown in Test Example 1, is caused by a change in the amount of T-705RTP, the amount of T-705RTP in 293T cells was measured under the treatment with 6-mercaptopurine.
293T cells (5×10^5 cells) seeded in each well of a 6-well plate were cultured with a vehicle (0.3% DMSO) or with 6-mercaptopurine, T-705, or the two drugs in various concentrations, under conditions of 5% CO2 at 37° C. for 24 hours.
After completion of the culture, the reaction mixture was washed with 2 ml of PBS, and 300 μl of trypsin was then added thereto. The obtained mixture was left at rest at 37° C. for 5 minutes, and the cells were then removed. Subsequently, 400 μl of a trypsin inhibitor was added and suspended into the cells, and the cell suspension was then recovered in a 1.5-ml tube. The cell suspension was centrifuged at 1,000 rpm at 4° C. for 2 minutes (MX-301, TOMY), and 500 μl of a supernatant was then removed. […]
The measurement of the number of cells and an LC/MS/MS analysis were carried out, and the amount of T-705RTP in each sample was then measured. […]

Test [4] deals with influenza virus (PR/8(H1N1)). It is filed as cell-based.
Test [5] concerns Punta Toro virus. It is filed as cell-based.
Setting [6] is: HEK-293T, T-705 10 μM, antimetabolite 0.08 μM.
Where [7] appears, read: HEK-293T, T-705 10 μM, antimetabolite 0.4 μM.
[8] abbreviates: HEK-293T, T-705 10 μM, antimetabolite 2.0 μM.
The mark [9] stands for this setting: HEK-293T, T-705 10 μM, antimetabolite 10.0 μM.
The mark [10] stands for this setting: T-705 0 μM, antimetabolite 0.08 μM.
[11] abbreviates: T-705 0 μM, antimetabolite 0.4 μM.
[12] abbreviates: T-705 0 μM, antimetabolite 2.0 μM.
[13] abbreviates: T-705 0 μM, antimetabolite 10.0 μM.
The mark [14] stands for this setting: HEK-293T, single agent, without T-705, read-out: replicon inhibiting percentage.

Where “and” joins values, the source holds several entries; their conditions need not be identical. Equal entries are not always repeated. Where two headings read alike, the source gives them in different places. Marks after values point to notes of the source that are not given here. Where only a bound is given, the exact number is not on record here.

For `Sc1ncnc2nc[nH]c12` [6-Mercaptopurine, 6-mercaptopurine], the inhibition at 10 µM came to 1.8% in test [1] (setting [6]), 3.7% in test [1] (setting [7]), 17% in test [1] (setting [8]) and 38% in test [1] (setting [9]). The inhibition at 200 µM in test [1] (HEK-293T, single agent, <200 μM, without T-705, read-out: replicon inhibiting percentage) is less than 50%. The Replicon inhibiting percentage in test [1] (setting [10]) was −1.1%; in test [1] (setting [11]), 1.5%; in test [1] (setting [12]) it was 2.7%; in test [1] (setting [13]), 8.2%. In addition, the CPE inhibitory effects result in test [2] (single agent, 10 μM) was “did not exhibit CPE inhibitory effects”. The “amount of T-705RTP in the cells after the treatment of T-705” value in test [3] is listed as “increased”.
As for `Cn1cnc([N+](=O)[O-])c1Sc1ncnc2nc[nH]c12` [Azathioprine, azathioprine], the inhibition at 10 µM in test [1] (setting [6]) was found to be 3.3%; in test [1] (setting [7]) it was 1.3%; in test [1] (setting [8]) it was 5.9%; in test [1] (setting [9]), 26%. Moreover, the Replicon inhibiting percentage in test [1] (setting [10]) is 3.1%; in test [1] (setting [11]), −6.1%; in test [1] (setting [12]), 3.4%; in test [1] (setting [13]) it was 5.8%.
In the case of `CN(Cc1cnc2nc(N)nc(N)c2n1)c1ccc(C(=O)N[C@@H](CCC(=O)O)C(=O)O)cc1` [Methotrexate, methotrexate], the inhibition at 10 µM in test [1] (setting [6]) worked out at 11%; in test [1] (setting [7]), 36%; in test [1] (setting [8]) it was 34%; in test [1] (setting [9]), 37%. Moreover, in test [1] (setting [14]), the inhibition at 20 µM was less than 50%. The Replicon inhibiting percentage was 1.3% in test [1] (setting [10]), 18% in test [1] (setting [11]), 20% in test [1] (setting [12]) and 19% in test [1] (setting [13]).
For the compound `C#CCC(Cc1cnc2nc(N)nc(N)c2n1)c1ccc(C(=O)N[C@@H](CCC(=O)O)C(=O)O)cc1` (some centres unmarked) [Pralatrexate, pralatrexate], the inhibition at 10 µM in test [1] (setting [6]) was found to be 33%; in test [1] (setting [7]) it was 33%; in test [1] (setting [8]), 33%; in test [1] (setting [9]), 35%. In test [1] (setting [14]), the inhibition at 20 µM is less than 50%. The Replicon inhibiting percentage stood at 24% in test [1] (setting [10]), 23% in test [1] (setting [11]), 2% in test [1] (setting [12]) and 23% in test [1] (setting [13]).
`NC(=O)c1ncn([C@@H]2O[C@H](CO)[C@@H](O)[C@H]2O)n1` [Ribavirin]: in test [4] (used alone), the “minimum drug concentration which exhibits complete CPE suppression effect” value is 30 µM.
Take `NC(=O)c1nc(F)cnc1O` [T-705, 6-Fluoro-3-hydroxy-2-pyrazinecarboxamide]: the IC50 in test [1] (6-Mercaptopurine concentration 0 μM) stood at 310 µM; in test [1] (6-Mercaptopurine concentration 0.03 μM), 303 µM; in test [1] (6-Mercaptopurine concentration 0.09 μM), 275 µM; in test [1] (6-Mercaptopurine concentration 0.27 μM) it was 219 µM; in test [1] (6-Mercaptopurine concentration 0.82 μM), 163 µM; in test [1] (6-Mercaptopurine concentration 2.5 μM) it was 67 µM. Besides, the IC50 in test [1] (6-Mercaptopurine concentration 7.4 μM) came to 16 µM; in test [1] (6-Mercaptopurine concentration 22 μM) it was 2.3 µM; in test [1] (6-Mercaptopurine concentration 67 μM), 5.1 µM; in test [1] (6-Mercaptopurine concentration 200 μM) it was 23 µM; in test [1] (Methotrexate concentration 0 μM), 314 µM; in test [1] (Methotrexate concentration 0.08 μM), 46 µM. The IC50 in test [1] (Methotrexate concentration 0.16 μM) was found to be 43 µM; in test [1] (Methotrexate concentration 0.31 μM), 41 µM; in test [1] (Methotrexate concentration 0.63 μM) it was 47 µM; in test [1] (Methotrexate concentration 1.25 μM) it was 40 µM; in test [1] (Methotrexate concentration 2.5 μM) it was 38 µM; in test [1] (Methotrexate concentration 5 μM), 39 µM. Moreover, the IC50 in test [1] (Methotrexate concentration 10 μM) turned out to be 28 µM; in test [1] (Methotrexate concentration 20 μM), 30 µM; in test [1] (Pralatrexate concentration 0 μM), 304 µM; in test [1] (Pralatrexate concentration 0.08 μM) it was 32 µM; in test [1] (Pralatrexate concentration 0.16 μM) it was 31 µM; in test [1] (Pralatrexate concentration 0.31 μM), 25 µM. The IC50 in test [1] (Pralatrexate concentration 0.63 μM) stood at 29 µM; in test [1] (Pralatrexate concentration 1.25 μM), 18 µM; in test [1] (Pralatrexate concentration 2.5 μM) it was 24 µM; in test [1] (Pralatrexate concentration 5 μM) it was 25 µM; in test [1] (Pralatrexate concentration 10 μM) it was 22 µM; in test [1] (Pralatrexate concentration 20 μM) it was 23 µM. In addition, the IC50 in test [2] (read-out: T-705 50% concentration (50% inhibitory concentration of T-705), 6-Mercaptopurine concentration 0 μM) came out at 1.97 µM; in test [2] (read-out: T-705 50% concentration (50% inhibitory concentration of T-705), 6-Mercaptopurine concentration 0.1 μM), 1.83 µM; in test [2] (read-out: T-705 50% concentration (50% inhibitory concentration of T-705), 6-Mercaptopurine concentration 0.3 μM), 1.32 µM; in test [2] (read-out: T-705 50% concentration (50% inhibitory concentration of T-705), 6-Mercaptopurine concentration 1 μM), 0.77 µM; in test [2] (read-out: T-705 50% concentration (50% inhibitory concentration of T-705), 6-Mercaptopurine concentration 3 μM), 0.7 µM; in test [2] (read-out: T-705 50% concentration (50% inhibitory concentration of T-705), 6-Mercaptopurine concentration 10 μM) it was 0.38 µM. The Replicon inhibiting percentage in test [1] (T-705 10 μM, antimetabolite 0 μM (T-705 alone)) is 0.58% and 2.2% and −1.8% and −2.3% and −7.8%. For the same compound, the “minimum drug concentration which exhibits complete CPE suppression effect” value in test [4] (6-mercaptopurine (10 μM) added) came out at 0.3 µM; in test [4] (6-mercaptopurine (10 μM) and Ribavirin (3 μM) added), 0.1 µM; in test [4] (used alone), 3 µM. The “LogTCID50 value that shows the effect of reducing the virus amount with respect to the infection control” value in test [5] is 1.0*.
Consider `NC(=O)c1nccnc1O` [T-1105, 3-hydroxy-pyrazinecarboxamide], for which the “LogTCID50 value that shows the effect of reducing the virus amount with respect to the infection control” value in test [5] is 0.0.
On to `Cn1c(=O)c2[nH]cnc2n(C)c1=O` [Theophylline, theophylline], for which, in test [5], the “LogTCID50 value that shows the effect of reducing the virus amount with respect to the infection control” value is “excellent effect of reducing the virus amount”.
As to `Nc1nc2nc[nH]c2c(=S)[nH]1` [Thioguanine], the inhibition at 10 µM in test [1] (setting [6]) was -1.2%; in test [1] (setting [8]), 14%; in test [1] (setting [9]) it was 23%. For the same compound, the Replicon inhibiting percentage is reported as −4.8% in test [1] (setting [10]), −5.4% in test [1] (setting [11]), −3.7% in test [1] (setting [12]) and 12% in test [1] (setting [13]).
For `NC(=O)c1csc([C@@H]2O[C@H](CO)[C@@H](O)[C@H]2O)n1` [Tiazofurin, tiazofurin], the “LogTCID50 value that shows the effect of reducing the virus amount with respect to the infection control” value in test [5] was “excellent effect of reducing the virus amount”.
